# Data from US11219658B2, “Composition for preventing or treating diseases caused by caffeine abuse including Evodia officinalis extract or evodiamine as active ingredient” (priority 2016, dated 2022).
# Marks after values point to notes of the source that are not given here.
# How the values were obtained:
# [1] = tested on: mouse model having somnipathy caused by caffeine abuse; experiment: Caffeine-induced somnipathy, Entobar (pentobarbital)-induced sleep onset and sleep duration; format: in vivo, ICR male mice; conditions: for Change in sleep onset (% of Control) / Change in total sleep duration (% of Control): vehicle control = 100
# Procedure: (§1) 4-week-old ICR male mice (20 to 22 g) were provided from Koatech (Pyeongtaek, Korea), acclimated by breeding for 1 week or more in an animal breeding room in the School of Pharmacy at Sungkyunkwan University, and freely fed water and feed. The temperature (23±2° C.), humidity (55±10%) and a dark/light cycle (12 hrs) were automatically controlled.
# Specifically, the first group was a group treated with 10% DMSO-containing distilled water and 40 mg/kg of Entobar® as a control, the second group was a group treated with 10% DMSO-containing distilled water, 50 mg/kg of caffeine and 40 mg/kg of Entobar®, the third group was a group treated with 200 mg/kg of the Evodia officinalis extract, 50 mg/kg of caffeine and 40 mg/kg of Entobar®, and the fourth group was a group treated with 400 mg/kg of the Evodia officinalis extract, 50 mg/kg of caffeine and 40 mg/kg of Entobar®.
# Regarding the administration method, the Evodia officinalis extract was dissolved in 10% DMSO-containing distilled water, orally administered to the mice at doses of 0, 200 and 400 mg/kg once a day for three days, and 30 minutes after the final administration. 50 mg/kg of caffeine was intraperitoneally injected into the mice. Thirty minutes after the caffeine injection, 40 mg/kg of Entobar® was intraperitoneally injected to induce sleep. Immediately after the Entobar® injection, the mice were put into each cage, and then sleep onset and sleep duration were measured.
# To compare caffeine-induced somnipathy-improving effects of the Evodia officinalis extract and evodiamine, the Evodia officinalis hot water extract prepared in Example 3, ethanol extract thereof and evodiamine were orally administered to the mice prepared in Example 2 once a day for 3 days. 30 minutes after the final administration, 50 mg/kg of caffeine was intraperitoneally injected into the mice. After thirty minutes. 40 mg/kg of Entobar® was intraperitoneally injected to induce sleep, followed by measuring sleep onset and total sleep duration.
# [2] = tested on: mouse model having motor activity increased by central nervous system stimulation due to caffeine abuse; experiment: Caffeine-induced central nervous system stimulation, motor activity in motor ability measurement box; format: in vivo, ICR male mice; conditions: for excitatory motor activity time (center time), percentage of maintenance in the center of the box: solvent control 3%; for excitatory motor activity count (center count), percentage of movement in the center of the box: solvent control 16%; for total movement of excitatory motor activity: solvent control 7,107 cm
# Procedure: as §1
# To measure an inhibitory effect of evodiamine on caffeine-induced central nervous system stimulation, the mice prepared in Example 2 were divided into four groups of 12 mice, and treated with evodiamine and caffeine in a different manner. The first group was a group treated with distilled water containing 10% DMSO (control), the second group was a group treated with 10% DMSO-containing distilled water and 10 mg/kg of caffeine, the third group was a group treated with 10 mg/kg of evodiamine and 10 mg/kg of caffeine, and the fourth group was a group treated with 20 mg/kg of evodiamine and 10 mg/kg of caffeine.
# Evodiamine was dissolved in 10% DMSO-containing distilled water, and orally administered to mice at doses of 0, 10 and 20 mg/kg, and 30 minutes later, intraperitoneally injected with caffeine 10 mg/kg of caffeine. Then, after 30 minutes, the mice were put into a motor ability measurement box (diameter: 30×30×30 (cm)), and measured for a total of 60 minutes using a video measurement and analysis system (Neurovision, Busan, Korea), followed by conversion of the improvement or inhibition in an increased excitatory motor activity count (center count), excitatory motor activity time (center time) and total movement of excitatory motor activity (total movement) to percentage (%).
# [3] = evodiamine 5 mg/kg p.o. once a day for 3 days + caffeine 50 mg/kg i.p. + Entobar 40 mg/kg i.p.
# [4] = evodiamine 10 mg/kg p.o. once a day for 3 days + caffeine 50 mg/kg i.p. + Entobar 40 mg/kg i.p.
# [5] = caffeine 50 mg/kg i.p. alone + Entobar 40 mg/kg i.p.
Compound,"Change in sleep onset (% of Control) [1, 3]","Change in total sleep duration (% of Control) [1, 3]","Change in sleep onset (% of Control) [1, 4]","Change in total sleep duration (% of Control) [1, 4]","excitatory motor activity time (center time), percentage of maintenance in the center of the box ([2]; evodiamine 10 mg/kg p.o. + caffeine 10 mg/kg i.p., caffeine control 9%) [%]","excitatory motor activity count (center count), percentage of movement in the center of the box ([2]; evodiamine 10 mg/kg p.o. + caffeine 10 mg/kg i.p., caffeine control 23%) [%]","total movement of excitatory motor activity ([2]; evodiamine 10 mg/kg p.o. + caffeine 10 mg/kg i.p., caffeine control 15,078 cm)","excitatory motor activity time (center time), percentage of maintenance in the center of the box ([2]; evodiamine 20 mg/kg p.o. + caffeine 10 mg/kg i.p., caffeine control 9%) [%]","excitatory motor activity count (center count), percentage of movement in the center of the box ([2]; evodiamine 20 mg/kg p.o. + caffeine 10 mg/kg i.p., caffeine control 23%) [%]","total movement of excitatory motor activity ([2]; evodiamine 20 mg/kg p.o. + caffeine 10 mg/kg i.p., caffeine control 15,078 cm)","sleep onset ([1]; caffeine 50 mg/kg i.p. + Entobar 40 mg/kg i.p., control without caffeine 219 seconds) [s]","sleep duration ([1]; caffeine 50 mg/kg i.p. + Entobar 40 mg/kg i.p., control without caffeine 2,940 seconds)","Change in sleep onset (% of Control) [1, 5]","Change in total sleep duration (% of Control) [1, 5]","excitatory motor activity count (center count), percentage of movement in the center of the box ([2]; caffeine 10 mg/kg i.p. alone (10% DMSO vehicle p.o.), 60 min measurement) [%]","excitatory motor activity time (center time), percentage of maintenance in the center of the box ([2]; caffeine 10 mg/kg i.p. alone) [%]",total movement of excitatory motor activity ([2]; caffeine 10 mg/kg i.p. alone)
CN1c2ccccc2C(=O)N2CCc3c([nH]c4ccccc34)C21 (centres unmarked) [evodiamine],138.7 % of Control,100.5 # % of Control,108.2 # % of Control,94.0 % of Control,7,20,"12,734 cm",5,19,"10,910 cm",,,,,,,
"Cn1c(=O)c2c(ncn2C)n(C)c1=O [caffeine, 1,3,7-trimethylxanthine]",,,,,,,,,,,371,"1,812 seconds",166.8 *** % of Control,57.4 ** % of Control,23,9,"15,078 cm"
